Drawing on article PMC9679038, “Hemoglobin is an oxygen-dependent glutathione buffer adapting the intracellular reduced glutathione levels to oxygen availability” (Redox Biology, 2022), this text covers Kd for one compound.

The assay has as its target T1, Hemoglobin (Hb; oxy-Hb, also deoxy-Hb) (Homo sapiens, UniProt P68871+P69905).
T1 construct: gene HBB

T1 sequence (P68871 2-147): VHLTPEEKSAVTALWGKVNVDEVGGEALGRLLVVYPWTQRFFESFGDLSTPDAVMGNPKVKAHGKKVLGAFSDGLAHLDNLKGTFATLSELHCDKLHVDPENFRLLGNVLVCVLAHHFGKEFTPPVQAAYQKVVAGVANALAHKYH
T1 sequence (P69905 2-142): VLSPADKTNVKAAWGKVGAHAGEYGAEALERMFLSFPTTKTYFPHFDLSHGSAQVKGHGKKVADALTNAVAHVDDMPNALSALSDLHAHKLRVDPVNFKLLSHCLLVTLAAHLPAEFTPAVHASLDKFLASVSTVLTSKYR

In general, Kd refers to a measure of binding affinity in units of concentration. Read a low Kd as a tighter complex. `N[C@@H](CCC(=O)N[C@@H](CS)C(=O)NCC(=O)O)C(=O)O` [GSH, reduced glutathione] returned a Kd of 2000 nM.
